Measurements published in PubChem BioAssay AID1963978 (Molecular Pharmacology Branch, DTP, NCI, 2024).

Tested on: 616215-338-R-J1-PDC spheroids with HUVEC/MSC, viability
Test: Anticancer human tumor 616215-338-R-J1-PDC patient-derived colon adenocarcinoma cell line growth inhibition [PI3K]
Details: for IC50: curve of first compound; for viability, T/C: stronger effect = lower value; active means viability on the fitted dose curve at most 10% of control; inactive means the rest
In short: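 Spheroid viability read-out. Co-cultures contained the tumor line plus HUVEC and human MSCs. Each agent was paired with a PI3K inhibitor (inavolisib, alpelisib, duvelisib, copanlisib) across half-log dilutions starting at clinical Cmax, or at 10 microM when Cmax was unknown.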

[1] = second compound 0.00316 µM, first compound 0.0316 µM
[2] = second compound 0.00316 µM, first compound 0.1 µM
[3] = second compound 0.00316 µM, first compound 0.316 µM
[4] = second compound 0.00316 µM, first compound 1 µM
[5] = second compound 0.00316 µM, first compound 3.16 µM
[6] = second compound 0.00316 µM, first compound 10 µM
[7] = second compound 0.01 µM, first compound 0.0316 µM
[8] = second compound 0.01 µM, first compound 0.1 µM
[9] = second compound 0.01 µM, first compound 0.316 µM
[10] = second compound 0.01 µM, first compound 1 µM
[11] = second compound 0.01 µM, first compound 3.16 µM
[12] = second compound 0.01 µM, first compound 10 µM
[13] = second compound 0.0316 µM, first compound 0.0316 µM
[14] = second compound 0.0316 µM, first compound 0.1 µM
[15] = second compound 0.0316 µM, first compound 0.316 µM
[16] = second compound 0.0316 µM, first compound 1 µM
[17] = second compound 0.0316 µM, first compound 3.16 µM
[18] = second compound 0.0316 µM, first compound 10 µM
[19] = second compound 0.1 µM, first compound 0.0316 µM
[20] = second compound 0.1 µM, first compound 0.1 µM
[21] = second compound 0.1 µM, first compound 0.316 µM
[22] = second compound 0.1 µM, first compound 1 µM
[23] = second compound 0.1 µM, first compound 3.16 µM
[24] = second compound 0.1 µM, first compound 10 µM
[25] = second compound 0.316 µM, first compound 0.0316 µM
[26] = second compound 0.316 µM, first compound 0.1 µM
[27] = second compound 0.316 µM, first compound 0.316 µM
[28] = second compound 0.316 µM, first compound 1 µM
[29] = second compound 0.316 µM, first compound 3.16 µM
[30] = second compound 0.316 µM, first compound 10 µM
[31] = second compound 1 µM, first compound 0.0316 µM
[32] = second compound 1 µM, first compound 0.1 µM
[33] = second compound 1 µM, first compound 0.316 µM
[34] = second compound 1 µM, first compound 1 µM
[35] = second compound 1 µM, first compound 3.16 µM
[36] = second compound 1 µM, first compound 10 µM
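Further: spheroids exposed to agents for seven days before the viability read.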

C#Cc1c(F)ccc2cc(O)cc(-c3ncc4c(N5CC6CCC(C5)N6)nc(OCC56CCCN5CC(F)C6)nc4c3F)c12 (centres undefined) + COc1c(OCCCN2CCOCC2)ccc2c3n(c(=NC(=O)c4cnc(N)nc4)nc12)CCN3
active: viability, T/C [35] 6.21% | viability, T/C [36] 0.88%
> 10 µM: IC50 (second compound 0.00316 µM)
5.99 µM: IC50 (second compound 0.1 µM)
inactive: viability, T/C [1] 95.5% | viability, T/C [2] 89.2% | viability, T/C [3] 90.4% | viability, T/C [4] 91.4% | viability, T/C [5] 94.9% | viability, T/C [6] 72% | viability, T/C [7] 95.5% | viability, T/C [8] 89.7% | viability, T/C [9] 91.8% | viability, T/C [10] 102% | viability, T/C [11] 73.6% | viability, T/C [12] 43.5% | viability, T/C [13] 101% | viability, T/C [14] 98.1% | viability, T/C [15] 95.4% | viability, T/C [16] 106% | viability, T/C [17] 81.5% | viability, T/C [18] 44.1% | viability, T/C [19] 94% | viability, T/C [20] 95.9% | viability, T/C [21] 90.2% | viability, T/C [22] 93.7% | viability, T/C [23] 74.7% | viability, T/C [24] 30.3% | viability, T/C [25] 38.2% | viability, T/C [26] 42.4% | viability, T/C [27] 38.2% | viability, T/C [28] 30.9% | viability, T/C [29] 32.4% | viability, T/C [30] 17.9% | viability, T/C [31] 19.8% | viability, T/C [32] 27.1% | viability, T/C [33] 17.3% | viability, T/C [34] 10.8%
7.8 µM: IC50 (second compound 0.01 µM)
8.36 µM: IC50 (second compound 0.0316 µM)
< 0.0316 µM: IC50 (second compound 0.316 µM) | IC50 (second compound 1 µM)

CC(Cn1ccc(-c2ccc(C#N)c(Cl)c2)n1)NC(=O)c1cc(C(C)O)[nH]n1 (centres undefined) + COc1c(OCCCN2CCOCC2)ccc2c3n(c(=NC(=O)c4cnc(N)nc4)nc12)CCN3
inactive: viability, T/C [1] 93.9% | viability, T/C [2] 93.3% | viability, T/C [3] 88.6% | viability, T/C [4] 95.8% | viability, T/C [5] 104% | viability, T/C [6] 91.3% | viability, T/C [7] 99.4% | viability, T/C [8] 86.7% | viability, T/C [9] 100% | viability, T/C [10] 90.8% | viability, T/C [11] 90.3% | viability, T/C [12] 86.2% | viability, T/C [13] 99.1% | viability, T/C [14] 102% | viability, T/C [15] 99.9% | viability, T/C [16] 109% | viability, T/C [17] 93.2% | viability, T/C [18] 84.2% | viability, T/C [19] 90.8% | viability, T/C [20] 91.4% | viability, T/C [21] 90.2% | viability, T/C [22] 96.8% | viability, T/C [23] 89.2% | viability, T/C [24] 83.4% | viability, T/C [25] 35.2% | viability, T/C [26] 34.7% | viability, T/C [27] 45.3% | viability, T/C [28] 33.5% | viability, T/C [29] 36% | viability, T/C [30] 28.5% | viability, T/C [31] 27.7% | viability, T/C [32] 17.2% | viability, T/C [33] 20.3% | viability, T/C [34] 24.8% | viability, T/C [35] 18.8% | viability, T/C [36] 17.8%
> 10 µM: IC50 (second compound 0.00316 µM) | IC50 (second compound 0.01 µM) | IC50 (second compound 0.0316 µM) | IC50 (second compound 0.1 µM)
< 0.0316 µM: IC50 (second compound 0.316 µM) | IC50 (second compound 1 µM)
